Assay type in all cases: cell-based
The target of one assay is T1, STING HAQ variant (Homo sapiens, UniProt Q86WV6, G230A/R293Q/R71H).
T1 construct: host or cells: HEK-Blue ISG KO-STING cells (Invivogen, hkb-kostg)
The assay is described as follows: SEAP reporter assay in HEK-Blue ISG KO-STING cells transfected with STING HAQ variant (Method 2). Particulars: 0.0625 ng STING vector (HAQ variant), compound 5 uM, 24 h, SEAP signal vs 0.5% DMSO. Details: key: ratio of compound SEAP signal to 0.5% DMSO. The source says:
(§1) Activation of STING can be determined using a SEAP reporter assay in HEK-Blue™ ISG KO-STING cells (Invivogen, cat #hkb-kostg) transfected with plasmids expressing STING variants (WT & HAQ) (referred to WO2017/175147A1). STING variants (WT & HAQ) vector were constructed based on STING-232H vector (Origene, RC208418). GFP vector (VT2069) was bought from Youbio. The detailed protocol as follows: HEK-Blue™ ISG KO-STING cells were harvest and seeding into 96 well plate and the final cell number was 0.8×10^5 cells/well. Transfections were prepared using Lipofectamine 2000 (Invitrogen, Cat #11668-027) following the manufacturer's instructions (Lipo2000/DNA=1/10), 20 ul of transfection suspension containing 1 ng (WT variant) or 0.0625 ng (HAQ variant) STING vector was added to cell culture plate and incubated at 37° C., 5% CO2 for 24 hours. After 24 hours incubation, compounds were added at proper concentration, the final DMSO concentration was 0.5%. After 24 h incubation, the supernatant was collected to detect SEAP signal using Great EscAPe SEAP chemiluminescence KIT (Clontech, cat #631738) and cells were collected to detect cell viability using CellTiter-Glo Luminescent Cell Viability Assay (Promega, cat #G7573) following the manufacturer's instructions. The data were described by the ratio of the stimulating signal of compounds to 0.5% DMSO.
A general note: A reporter such as luciferase makes a cellular process visible.

A further assay concerns the target T2, STING WT variant (Homo sapiens, UniProt Q86WV6).
T2 construct: host or cells: HEK-Blue ISG KO-STING cells (Invivogen, hkb-kostg)
The assay is described as follows: SEAP reporter assay in HEK-Blue ISG KO-STING cells transfected with STING WT variant (Method 2). More on the design: key: ratio of compound SEAP signal to 0.5% DMSO. Particulars: 1 ng STING vector (WT variant), compound 2.5 uM, 24 h, SEAP signal vs 0.5% DMSO.
Excerpt: as §1

The next assay deals with STING (Homo sapiens, UniProt Q86WV6). The assay is described as follows: IFN-β secretion from THP1 by STING activation (hIFNβ ELISA). The essentials: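 THP1 cells (2×10^6 cells/ml) exposed 24 h at 37° C, 5% CO2 to 8-point, 3-fold compound dilutions, 0.2% DMSO final, top dose set by solubility. Secreted IFN-β in supernatant measured by human IFNβ ELISA; EC50 from curve fitting.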
Background: In an ELISA, binding on a coated surface is turned into a signal by an enzyme label.

[1] abbreviates: THP1 cells; 24 h incubation; IFN-β in supernatant; top dose set according to solubility; read-out: hIFNβ ELISA (EC50).

Data on eleven molecules can be found in US12364702B2, “Highly active sting protein agonist compound” (ADLAI NORTYE BIOPHARMA CO., LTD., priority 2018, dated 2025).

Read-outs that look alike come from different tables or passages of the source. A value given as a limit tells only on which side of the number the result lay.

STING, sequence (Q86WV6 whole entry): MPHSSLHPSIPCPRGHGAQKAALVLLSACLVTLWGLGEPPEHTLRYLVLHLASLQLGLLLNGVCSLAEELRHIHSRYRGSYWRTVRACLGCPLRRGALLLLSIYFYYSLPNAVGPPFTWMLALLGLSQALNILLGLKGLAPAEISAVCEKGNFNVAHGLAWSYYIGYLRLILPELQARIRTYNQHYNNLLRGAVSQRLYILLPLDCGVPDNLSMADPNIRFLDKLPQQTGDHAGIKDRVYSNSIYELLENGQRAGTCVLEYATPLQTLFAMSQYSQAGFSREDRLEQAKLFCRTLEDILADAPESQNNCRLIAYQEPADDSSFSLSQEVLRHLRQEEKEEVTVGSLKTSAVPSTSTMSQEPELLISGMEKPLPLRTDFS
T1 sequence (Q86WV6 whole entry R71H/G230A/R293Q): as the sequence (Q86WV6 whole entry) above, with R71H, G230A, R293Q counted along it

Regarding `CCn1nc(C)cc1C(=O)Nc1nc2cc(C(N)=O)cc(OCCCNS(=O)(=O)CCN)c2n1CCC[C@H]1COc2cc(C(N)=O)cc3nc(NC(=O)c4cc(C)nn4CC)n1c23` [Example 44, (S)-3-(3-(7-(3-(2-aminoethylsulfonamido)propoxy)-5-carbamoyl-2-(1-ethyl-3-methyl-1H-pyrazole-5-carboxamido)-1H-benzo[d]imidazol-1-yl)propyl)-2-(1-ethyl-3-methyl-1H-pyrazole-5-carboxamido)-3,4-dihydro-5-oxa-1,2a-diazaacenaphthylene-7-carboxamide], the “Fold change related to DMSO control HAQ” value at STING HAQ variant is on record as 31.46. On STING WT variant, the “Fold change related to DMSO control WT” value is 6.47. In addition, the EC50 (usually the midpoint of the concentration-response curve) at STING (setting [1]) is > 39.7 µM.
For `CCn1nc(C)c(F)c1C(=O)Nc1nc2cc(C(N)=O)cc(OCCCOC)c2n1CCC[C@H]1COc2cc(C(N)=O)cc3nc(NC(=O)c4c(F)c(C)nn4CC)n1c23` [Example 49, (S)-3-(3-(5-carbamoyl-2-(1-ethyl-4-fluoro-3-methyl-1H-pyrazole-5-carboxamido)-7-(3-methoxypropoxy)-1H-benzo[d]imidazol-1-yl)propyl)-2-(1-ethyl-4-fluoro-3-methyl-1H-pyrazole-5-carboxamido)-3,4-dihydro-5-oxa-1,2a-diazaacenaphthylene-7-carboxamide], the “Fold change related to DMSO control HAQ” value on STING HAQ variant is 27.58. Besides, on STING WT variant, the “Fold change related to DMSO control WT” value came out at 11.17. Further, the concentration for a half-maximal effect (EC50) at STING (setting [1]) was found to be 0.5 µM.
In the same order, the values of `CCn1nc(C)cc1C(=O)Nc1nc2cc(C(N)=O)cc(OCCCNC(=O)CN3CCOCC3)c2n1CCC[C@H]1COc2cc(C(N)=O)cc3nc(NC(=O)c4c(Cl)c(C)nn4CC)n1c23` [Example 55, (S)-3-(3-(5-carbamoyl-2-(1-ethyl-3-methyl-1H-pyrazole-5-carboxamido)-7-(3-(2-morpholinoacetamido)propoxy)-1H-benzo[d]imidazol-1-yl)propyl)-2-(4-chloro-1-ethyl-3-methyl-1H-pyrazole-5-carboxamido)-3,4-dihydro-5-oxa-1,2a-diazaacenaphthylene-7-carboxamide] are 26.34, 11.71 and 1.2 µM.
In the case of `CCn1nc(C)cc1C(=O)Nc1nc2cc(C(N)=O)cc(OCCCNC(=O)CN3CC[C@@H](OC)C3)c2n1CCC[C@H]1COc2cc(C(N)=O)cc3nc(NC(=O)c4cc(C)nn4CC)n1c23` [Example 39, (S)-3-(3-(5-carbamoyl-2-(1-ethyl-3-methyl-1H-pyrazole-5-carboxamido)-7-(3-(2-((R)-3-methoxypyrrolidin-1-yl)acetamido)propoxy)-1H-benzo[d]imidazol-1-yl)propyl)-2-(1-ethyl-3-methyl-1H-pyrazole-5-carboxamido)-3,4-dihydro-5-oxa-1,2a-diazaacenaphthylene-7-carboxamide], the “Fold change related to DMSO control HAQ” value at STING HAQ variant was found to be 16.45. Further, the “Fold change related to DMSO control WT” value on STING WT variant amounted to 11.39. Further, the 50% effective concentration (EC50) at STING (setting [1]) turned out to be 2.2 µM.
The matching figures for `CCn1nc(C)cc1C(=O)Nc1nc2cc(C(N)=O)cc(OCCCNC(=O)CN3CCC(O)CC3)c2n1CCC[C@H]1COc2cc(C(N)=O)cc3nc(NC(=O)c4cc(C)nn4CC)n1c23` [Example 40, (S)-3-(3-(5-carbamoyl-2-(1-ethyl-3-methyl-1H-pyrazole-5-carboxamido)-7-(3-(2-(4-hydroxypiperidin-1-yl)acetamido)propoxy)-1H-benzo[d]imidazol-1-yl)propyl)-2-(1-ethyl-3-methyl-1H-pyrazole-5-carboxamido)-3,4-dihydro-5-oxa-1,2a-diazaacenaphthylene-7-carboxamide]: 13.94, 7.82 and 4.7 µM.
The matching figures for `CCn1nc(C)cc1C(=O)Nc1nc2cc(C(N)=O)cc(OCCCNC(=O)CN3CCOCC3)c2n1CCC[C@H]1COc2cc(C(N)=O)cc3nc(NC(=O)c4c(F)c(C)nn4CC)n1c23` [Example 53, (S)-3-(3-(5-carbamoyl-2-(1-ethyl-3-methyl-1H-pyrazole-5-carboxamido)-7-(3-(2-morpholinoacetamido)propoxy)-1H-benzo[d]imidazol-1-yl)propyl)-2-(1-ethyl-4-fluoro-3-methyl-1H-pyrazole-5-carboxamido)-3,4-dihydro-5-oxa-1,2a-diazaacenaphthylene-7-carboxamide]: 17.39, 10.85 and 1.2 µM.
The matching figures for `CCn1nc(C)cc1C(=O)Nc1nc2cc(C(N)=O)cc(OCCCNC(=O)CN(C)C)c2n1CCC[C@H]1COc2cc(C(N)=O)cc3nc(NC(=O)c4c(Cl)c(C)nn4CC)n1c23` [Example 54, (S)-3-(3-(5-carbamoyl-7-(3-(2-(dimethylamino)acetamido)propoxy)-2-(1-ethyl-3-methyl-1H-pyrazole-5-carboxamido)-1H-benzo[d]imidazol-1-yl)propyl)-2-(4-chloro-1-ethyl-3-methyl-1H-pyrazole-5-carboxamido)-3,4-dihydro-5-oxa-1,2a-diazaacenaphthylene-7-carboxamide]: 19.74, 13.02 and 5.2 µM.
`CCn1nc(C)cc1C(=O)Nc1nc2cc(C(N)=O)cc(OCCCNS(=O)(=O)C3CCNCC3)c2n1CCC[C@H]1COc2cc(C(N)=O)cc3nc(NC(=O)c4cc(C)nn4CC)n1c23` [Example 45, (S)-3-(3-(5-carbamoyl-2-(1-ethyl-3-methyl-1H-pyrazole-5-carboxamido)-7-(3-(piperidine-4-sulfonamido)propoxy)-1H-benzo[d]imidazol-1-yl)propyl)-2-(1-ethyl-3-methyl-1H-pyrazole-5-carboxamido)-3,4-dihydro-5-oxa-1,2a-diazaacenaphthylene-7-carboxamide]: the “Fold change related to DMSO control HAQ” value on STING HAQ variant was found to be 21.63. Moreover, at STING WT variant, the “Fold change related to DMSO control WT” value was 4.43. Moreover, on STING (setting [1]), the 50% effective concentration (EC50) was > 50 µM.
The matching figures for `CCn1nc(C)cc1C(=O)Nc1nc2cc(C(N)=O)cc(OCCCNC(=O)CN(C)C)c2n1CCC[C@H]1COc2cc(C(N)=O)cc3nc(NC(=O)c4c(F)c(C)nn4CC)n1c23` [Example 52, (S)-3-(3-(5-carbamoyl-7-(3-(2-(dimethylamino)acetamido)propoxy)-2-(1-ethyl-3-methyl-1H-pyrazole-5-carboxamido)-1H-benzo[d]imidazol-1-yl)propyl)-2-(1-ethyl-4-fluoro-3-methyl-1H-pyrazole-5-carboxamido)-3,4-dihydro-5-oxa-1,2a-diazaacenaphthylene-7-carboxamide]: 18.32, 11.79 and > 50 µM.
For `CCn1nc(C)cc1C(=O)Nc1nc2cc(C(N)=O)cc(OCCCN)c2n1CCC[C@H]1COc2cc(C(N)=O)cc3nc(NC(=O)c4c(F)c(C)nn4CC)n1c23.Cl` [Example 51, (S)-3-(3-(7-(3-aminopropoxy)-5-carbamoyl-2-(1-ethyl-3-methyl-1H-pyrazole-5-carboxamido)-1H-benzo[d]imidazol-1-yl)propyl)-2-(1-ethyl-4-fluoro-3-methyl-1H-pyrazole-5-carboxamido)-3,4-dihydro-5-oxa-1,2a-diazaacenaphthylene-7-carboxamide hydrochloride], at STING HAQ variant, the “Fold change related to DMSO control HAQ” value turned out to be 11.97. For the same molecule, on STING WT variant, the “Fold change related to DMSO control WT” value turned out to be 9.66. Also, the EC50 on STING (read-out: hIFNβ ELISA (EC50); THP1 cells; 24 h incubation; IFN-β in supernatant; top dose set according to solubility) is > 50 µM.
As for `CCn1nc(C)cc1C(=O)Nc1nc2cc(C#N)cc(OCCCNC(=O)CN3CCOCC3)c2n1CCC[C@H]1COc2cc(C#N)cc3nc(NC(=O)c4cc(C)nn4CC)n1c23` [Example 48, (S)—N-(5-cyano-1-(3-(7-cyano-2-(1-ethyl-3-methyl-1H-pyrazole-5-carboxamido)-3,4-dihydro-5-oxa-1,2a-diazaacenaphthylen-3-yl)propyl)-7-(3-(2-morpholinoacetamido)propoxy)-1H-benzo[d]imidazol-2-yl)-1-ethyl-3-methyl-1H-pyrazole-5-carboxamide], the “Fold change related to DMSO control HAQ” value on STING HAQ variant came out at 7.94. In addition, the “Fold change related to DMSO control WT” value at STING WT variant is 5.70. Further, at STING (THP1 cells; 24 h incubation; IFN-β in supernatant; top dose set according to solubility), the “hIFNβ ELISA (EC50, μM)” value was “inactive”.
